Among the data in ChEMBL document CHEMBL2424532, “Investigation of an F-18 oxytocin receptor selective ligand via PET imaging” (Bioorg Med Chem Lett, 2013) are Ki, Drug uptake and logD values, retold here.

SMILES strings stand for the structures.

One data set addresses T1, Vasopressin V1b receptor (Homo sapiens, UniProt P47901).
T1 sequence (P47901 whole entry): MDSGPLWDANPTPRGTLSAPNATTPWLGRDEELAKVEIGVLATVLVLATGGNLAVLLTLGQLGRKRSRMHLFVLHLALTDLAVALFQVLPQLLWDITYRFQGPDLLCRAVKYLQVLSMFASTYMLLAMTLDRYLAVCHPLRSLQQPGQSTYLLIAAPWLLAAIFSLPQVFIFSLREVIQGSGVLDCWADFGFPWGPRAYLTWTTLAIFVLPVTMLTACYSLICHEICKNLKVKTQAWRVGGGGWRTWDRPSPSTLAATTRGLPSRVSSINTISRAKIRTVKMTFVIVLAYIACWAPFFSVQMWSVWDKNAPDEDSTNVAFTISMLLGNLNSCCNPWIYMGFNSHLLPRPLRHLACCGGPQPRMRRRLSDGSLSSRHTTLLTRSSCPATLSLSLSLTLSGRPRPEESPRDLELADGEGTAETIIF
The experiment in a line: Binding affinity to human V1BR by competitive binding assay.

In data set [1] the target is 5-hydroxytryptamine receptor 6 (Homo sapiens, UniProt P50406). The experiment in a line: Binding affinity to human 5HT6 receptor by competitive binding assay.
Data set [2] addresses T2, Alpha-1A adrenergic receptor (Homo sapiens, UniProt P35348).
T2 sequence (P35348 whole entry): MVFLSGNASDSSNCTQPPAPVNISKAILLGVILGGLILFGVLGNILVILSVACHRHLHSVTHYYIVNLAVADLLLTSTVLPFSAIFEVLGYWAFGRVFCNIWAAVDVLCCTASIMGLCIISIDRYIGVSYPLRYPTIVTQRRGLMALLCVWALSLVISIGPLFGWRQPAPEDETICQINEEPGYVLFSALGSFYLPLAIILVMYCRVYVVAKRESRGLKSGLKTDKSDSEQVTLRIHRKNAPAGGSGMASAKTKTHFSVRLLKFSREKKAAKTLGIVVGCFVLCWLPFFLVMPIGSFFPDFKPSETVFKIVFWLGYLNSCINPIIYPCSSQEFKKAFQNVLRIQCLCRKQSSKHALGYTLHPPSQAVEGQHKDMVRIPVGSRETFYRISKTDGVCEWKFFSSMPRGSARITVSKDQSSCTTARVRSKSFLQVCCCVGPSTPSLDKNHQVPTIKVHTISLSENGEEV
The data set can be described thus: Binding affinity to human adrenergic alpha-1A receptor by competitive binding assay.

Another data set has as its target D(3) dopamine receptor (Homo sapiens, UniProt P35462). The data set can be described thus: Binding affinity to human dopamine D3 receptor by competitive binding assay.
Data set [3] concerns the target Serotonin (5-HT) receptor. The data set can be described thus: Binding affinity to human 5HTB receptor by competitive binding assay. Format: protein assay.
Data set [4] addresses 5-hydroxytryptamine receptor 2B (Homo sapiens, UniProt P41595). The experiment in a line: Binding affinity to human 5HT2B receptor by competitive binding assay.
Data set [5] concerns the target T3, Muscarinic acetylcholine receptor M4 (Homo sapiens, UniProt P08173).
T3 sequence (P08173 whole entry): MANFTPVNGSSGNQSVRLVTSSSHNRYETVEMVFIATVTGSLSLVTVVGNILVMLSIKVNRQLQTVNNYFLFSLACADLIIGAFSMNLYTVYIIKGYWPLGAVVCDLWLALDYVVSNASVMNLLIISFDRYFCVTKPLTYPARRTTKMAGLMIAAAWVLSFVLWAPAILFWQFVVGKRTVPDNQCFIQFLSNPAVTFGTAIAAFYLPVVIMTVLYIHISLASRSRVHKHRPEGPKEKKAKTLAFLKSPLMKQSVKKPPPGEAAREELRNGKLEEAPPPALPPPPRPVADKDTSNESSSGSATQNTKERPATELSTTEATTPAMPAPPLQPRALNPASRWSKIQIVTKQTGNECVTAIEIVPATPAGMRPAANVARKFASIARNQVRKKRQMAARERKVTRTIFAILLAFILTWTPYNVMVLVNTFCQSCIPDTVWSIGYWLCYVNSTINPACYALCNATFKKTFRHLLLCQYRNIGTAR
The data set can be described thus: Binding affinity to human muscarinic M4 receptor by competitive binding assay.

The target of data set [6] is 5-hydroxytryptamine receptor 1B (Homo sapiens, UniProt P28222). The experiment in a line: Binding affinity to human 5HT1B receptor by competitive binding assay.
The target of the next data set is Vasopressin V2 receptor (Homo sapiens, UniProt P30518). The experiment in a line: Binding affinity to human V2R by competitive binding assay.
Another data set has as its target Vasopressin V1a receptor (Homo sapiens, UniProt P37288). The experiment in a line: Binding affinity to human V1AR by competitive binding assay.
The target of a further data set is T4, Oxytocin receptor (Homo sapiens, UniProt P30559).
T4 sequence (P30559 whole entry): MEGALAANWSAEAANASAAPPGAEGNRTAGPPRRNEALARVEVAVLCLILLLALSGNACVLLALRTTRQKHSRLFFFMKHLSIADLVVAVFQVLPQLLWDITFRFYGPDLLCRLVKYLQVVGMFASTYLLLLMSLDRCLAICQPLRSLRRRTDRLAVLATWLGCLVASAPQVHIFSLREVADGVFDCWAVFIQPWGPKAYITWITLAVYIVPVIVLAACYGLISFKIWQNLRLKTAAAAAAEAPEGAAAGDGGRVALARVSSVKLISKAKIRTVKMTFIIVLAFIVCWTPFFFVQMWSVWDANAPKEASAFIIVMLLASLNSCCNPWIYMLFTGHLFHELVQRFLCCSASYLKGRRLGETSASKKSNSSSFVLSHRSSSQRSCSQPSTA
The experiment in a line: Binding affinity to human OTR by competitive binding assay.

Data set [7] in a line: Drug uptake in cynomolgus monkey choroid plexus at 5.5 mCi after 2 hrs in presence of unlabeled compound administered 45 mins before tracer challenge. Format: ADME, Macaca fascicularis. The following applies: in vivo.
Data set [8] is described as follows: Drug uptake in cynomolgus monkey choroid plexus at 5.5 mCi after 2 hrs in presence of unlabeled compound administered 30 mins before tracer challenge. Type of data set: ADME, Macaca fascicularis. The following applies: in vivo.
Data set [9] is described as follows: Drug uptake in cynomolgus monkey middle cerebral artery of cerebral cortex at 5.5 mCi up to 15 mins. Type of data set: ADME, tissue-based, Macaca fascicularis. The note with it: in vivo, 0.25 h.
The test system of data set [10] is Brain. The experiment in a line: Drug uptake in Sprague-Dawley rat brain at 280 uCi after 20 mins by PET analysis. Format: ADME, tissue-based. The following applies: in vivo.
Data set [11] is described as follows: Lipophilicity, log P of the compound at pH 7.4. Format: physicochemical. The following applies: buffer.
Data set [12] has as its system Brain. The data set can be described thus: Drug uptake in Sprague-Dawley rat brain at 280 uCi up to 20 mins by PET analysis. Format: ADME, tissue-based. The following applies: in vivo.

D(3) dopamine receptor, sequence (P35462 whole entry): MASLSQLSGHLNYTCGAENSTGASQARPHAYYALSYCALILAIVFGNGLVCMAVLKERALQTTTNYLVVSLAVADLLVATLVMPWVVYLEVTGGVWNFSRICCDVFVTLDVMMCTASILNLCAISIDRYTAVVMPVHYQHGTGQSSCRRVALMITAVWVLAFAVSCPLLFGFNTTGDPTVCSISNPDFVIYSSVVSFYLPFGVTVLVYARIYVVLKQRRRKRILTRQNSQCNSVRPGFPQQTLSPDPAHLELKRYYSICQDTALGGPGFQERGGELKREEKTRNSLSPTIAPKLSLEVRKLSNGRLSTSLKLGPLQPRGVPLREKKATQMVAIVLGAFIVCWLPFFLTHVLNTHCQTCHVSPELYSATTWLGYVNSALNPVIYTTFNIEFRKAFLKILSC
Vasopressin V2 receptor, sequence (P30518 whole entry): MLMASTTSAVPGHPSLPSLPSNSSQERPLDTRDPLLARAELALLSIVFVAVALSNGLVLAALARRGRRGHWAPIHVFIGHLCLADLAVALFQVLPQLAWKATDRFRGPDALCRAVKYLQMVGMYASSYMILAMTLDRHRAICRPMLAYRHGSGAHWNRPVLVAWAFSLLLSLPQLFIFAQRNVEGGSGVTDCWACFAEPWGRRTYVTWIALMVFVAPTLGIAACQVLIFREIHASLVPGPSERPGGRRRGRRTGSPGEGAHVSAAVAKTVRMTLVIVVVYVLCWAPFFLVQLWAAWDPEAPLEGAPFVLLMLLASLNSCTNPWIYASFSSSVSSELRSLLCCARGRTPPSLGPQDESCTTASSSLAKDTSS
5-hydroxytryptamine receptor 6, sequence (P50406 whole entry): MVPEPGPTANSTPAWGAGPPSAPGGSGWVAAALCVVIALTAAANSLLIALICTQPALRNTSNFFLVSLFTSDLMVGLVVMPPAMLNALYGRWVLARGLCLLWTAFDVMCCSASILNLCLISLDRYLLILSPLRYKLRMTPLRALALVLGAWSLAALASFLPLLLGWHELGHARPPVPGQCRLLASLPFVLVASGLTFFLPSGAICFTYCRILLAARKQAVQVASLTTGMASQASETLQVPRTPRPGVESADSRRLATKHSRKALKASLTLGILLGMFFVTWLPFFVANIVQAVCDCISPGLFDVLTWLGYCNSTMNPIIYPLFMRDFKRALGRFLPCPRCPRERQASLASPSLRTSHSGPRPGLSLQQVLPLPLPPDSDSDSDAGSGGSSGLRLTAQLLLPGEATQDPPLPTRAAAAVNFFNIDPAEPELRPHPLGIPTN
Vasopressin V1a receptor, sequence (P37288 whole entry): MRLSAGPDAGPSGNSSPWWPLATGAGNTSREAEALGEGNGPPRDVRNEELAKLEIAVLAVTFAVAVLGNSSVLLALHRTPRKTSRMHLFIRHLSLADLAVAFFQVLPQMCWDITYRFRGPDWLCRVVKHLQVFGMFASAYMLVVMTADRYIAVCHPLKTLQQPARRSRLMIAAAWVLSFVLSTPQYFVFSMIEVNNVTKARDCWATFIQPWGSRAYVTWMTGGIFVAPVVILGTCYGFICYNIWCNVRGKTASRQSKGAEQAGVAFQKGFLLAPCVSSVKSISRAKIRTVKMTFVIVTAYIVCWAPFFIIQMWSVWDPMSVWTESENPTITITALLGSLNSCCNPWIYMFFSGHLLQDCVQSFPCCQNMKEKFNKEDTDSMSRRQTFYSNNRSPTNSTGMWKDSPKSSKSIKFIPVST
5-hydroxytryptamine receptor 2B, sequence (P41595 whole entry): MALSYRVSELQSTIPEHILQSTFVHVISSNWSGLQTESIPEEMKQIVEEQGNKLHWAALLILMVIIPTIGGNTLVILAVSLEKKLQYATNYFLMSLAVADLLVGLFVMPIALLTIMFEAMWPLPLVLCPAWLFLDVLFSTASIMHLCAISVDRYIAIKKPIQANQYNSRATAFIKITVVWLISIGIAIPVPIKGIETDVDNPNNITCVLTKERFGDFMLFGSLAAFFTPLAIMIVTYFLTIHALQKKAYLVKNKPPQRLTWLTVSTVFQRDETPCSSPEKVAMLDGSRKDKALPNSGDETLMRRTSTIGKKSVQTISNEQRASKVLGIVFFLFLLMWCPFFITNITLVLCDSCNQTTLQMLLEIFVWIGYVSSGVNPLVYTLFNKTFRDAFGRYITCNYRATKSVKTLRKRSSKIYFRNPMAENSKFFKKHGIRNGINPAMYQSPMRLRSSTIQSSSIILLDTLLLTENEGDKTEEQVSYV
5-hydroxytryptamine receptor 1B, sequence (P28222 whole entry): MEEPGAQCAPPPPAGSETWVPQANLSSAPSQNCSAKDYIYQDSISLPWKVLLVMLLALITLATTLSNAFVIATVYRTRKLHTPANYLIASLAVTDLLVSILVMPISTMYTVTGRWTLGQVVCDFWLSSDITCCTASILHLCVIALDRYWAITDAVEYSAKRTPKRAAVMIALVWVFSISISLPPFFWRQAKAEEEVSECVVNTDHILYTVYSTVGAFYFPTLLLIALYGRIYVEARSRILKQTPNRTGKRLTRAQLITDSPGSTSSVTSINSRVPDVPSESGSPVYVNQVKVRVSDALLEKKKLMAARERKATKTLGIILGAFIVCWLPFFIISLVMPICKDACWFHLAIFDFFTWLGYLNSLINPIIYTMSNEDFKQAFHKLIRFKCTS

Consider `CS(=O)(=O)N1CCC(Oc2ccc(CC(=O)N3CCC(N4C(=O)CCc5ccccc54)CC3)c(OCCF)c2)CC1`, for which, at Vasopressin V1b receptor, the Ki was over 10000 nM.
Turning to `Cl.O=C(Cc1ccc(OC2CCNCC2)cc1OCCF)N1CCC(N2C(=O)CCc3ccccc32)CC1`, the Ki amounted to 187 nM in [1]; 80 nM in data set [2]; 6790 nM at D(3) dopamine receptor; 1270 nM in data set [3]; 500 nM in data set [4]; 1270 nM in data set [5]. The inhibition constant Ki in data set [6] was 700 nM; on Vasopressin V2 receptor it was 8700 nM; on Vasopressin V1b receptor, over 10000 nM; at Vasopressin V1a receptor, 5600 nM; at Oxytocin receptor, 15 nM.
Regarding `O=C(Cc1ccc(OC2CCNCC2)cc1OCC[18F])N1CCC(N2C(=O)CCc3ccccc32)CC1`, the Drug uptake result in data set [7] was “Active”; in [8], “Active”; in [9], “Active”; with Brain [10], “Not Active”; in the data set with Brain [12], “Active”. Besides, the logD in [11] came to 1.57.
